Measurements: ChEMBL document CHEMBL6134845, “O-derivatization of natural tropolone and β-thujaplicin leading to effective inhibitors of human carbonic anhydrases IX and XII” (Eur J Med Chem, 2025)

Key:
Carbonic anhydrase 1 = Carbonic anhydrase 1 (Homo sapiens, UniProt P00915); assay: Inhibition of human CA-I incubated for 15 mins by stopped-flow CO2 hydration assay
[1] = target: Carbonic anhydrase 5A, mitochondrial (Homo sapiens, UniProt P35218); assay: Inhibition of human CA-VA incubated for 15 mins by stopped-flow CO2 hydration assay
Chain of Carbonic anhydrase 5A, mitochondrial (P35218 whole entry): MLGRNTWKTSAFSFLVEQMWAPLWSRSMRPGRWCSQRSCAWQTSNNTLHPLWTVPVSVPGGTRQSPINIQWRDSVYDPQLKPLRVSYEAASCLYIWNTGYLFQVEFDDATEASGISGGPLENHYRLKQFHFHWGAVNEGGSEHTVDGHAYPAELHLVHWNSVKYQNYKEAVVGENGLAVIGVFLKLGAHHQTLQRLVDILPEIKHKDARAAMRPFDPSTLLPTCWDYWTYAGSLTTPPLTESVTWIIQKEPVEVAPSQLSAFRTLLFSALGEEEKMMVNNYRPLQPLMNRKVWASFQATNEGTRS

Carbonic anhydrase 9 = Carbonic anhydrase 9 (Homo sapiens, UniProt Q16790)
Description: Inhibition of human CA-IX incubated for 15 mins by stopped-flow CO2 hydration assay

Homo sapiens [2] = organism: Homo sapiens; assay: Inhibition of […] human CA-II H94C mutant using p-nitrophenylacetate as substrate at 500 uM preincubated for 10 mins followed by substrate addition by absorbance based assay relative to control
Homo sapiens [3] = organism: Homo sapiens; assay: Inhibition of […] human CA-II H94D mutant using p-nitrophenylacetate as substrate at 500 uM preincubated for 10 mins followed by substrate addition by absorbance based assay relative to control
Carbonic anhydrase 2 [4] = target: T1, Carbonic anhydrase 2 (Homo sapiens, UniProt P00918); assay: Inhibition of wild-type human CA-II using p-nitrophenylacetate as substrate preincubated for 15 mins followed by substrate addition measured for 20 mins by absorbance based assay
[5] = Inhibition of […] human CA-II L198G mutant using p-nitrophenylacetate as substrate preincubated for 15 mins followed by substrate addition measured for 20 mins by absorbance based assay
Carbonic anhydrase 2 [6] = target: T1, Carbonic anhydrase 2; assay: Inhibition of human CA-II incubated for 15 mins by stopped-flow CO2 hydration assay
Carbonic anhydrase 7 = Carbonic anhydrase 7 (Homo sapiens, UniProt P43166); assay: Inhibition of human CA-VII incubated for 15 mins by stopped-flow CO2 hydration assay
Chain of Carbonic anhydrase 7 (P43166 whole entry): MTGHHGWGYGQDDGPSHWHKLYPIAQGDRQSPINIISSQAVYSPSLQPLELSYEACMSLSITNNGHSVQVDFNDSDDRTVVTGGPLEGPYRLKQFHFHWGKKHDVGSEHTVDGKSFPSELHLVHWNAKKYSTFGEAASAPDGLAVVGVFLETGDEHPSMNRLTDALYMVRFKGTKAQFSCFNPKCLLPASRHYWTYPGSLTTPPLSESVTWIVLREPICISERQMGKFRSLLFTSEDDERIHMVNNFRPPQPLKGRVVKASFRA

Carbonic anhydrase 12 = Carbonic anhydrase 12 (Homo sapiens, UniProt O43570); assay: Inhibition of human CA-XII incubated for 15 mins by stopped-flow CO2 hydration assay
Chain of Carbonic anhydrase 12 (O43570 whole entry): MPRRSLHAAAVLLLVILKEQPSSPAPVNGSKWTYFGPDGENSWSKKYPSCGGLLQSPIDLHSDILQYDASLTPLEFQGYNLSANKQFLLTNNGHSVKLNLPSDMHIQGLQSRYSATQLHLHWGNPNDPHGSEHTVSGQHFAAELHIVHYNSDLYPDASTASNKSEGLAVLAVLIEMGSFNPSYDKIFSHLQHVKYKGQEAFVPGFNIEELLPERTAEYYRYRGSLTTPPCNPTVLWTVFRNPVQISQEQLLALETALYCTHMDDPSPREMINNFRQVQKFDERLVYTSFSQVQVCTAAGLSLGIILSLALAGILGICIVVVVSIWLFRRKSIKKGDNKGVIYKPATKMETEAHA

[7] = Antiproliferative activity against human PBMC cells assessed as decrease in cell viability at 10 uM incubated for 48 hrs by Cell Titer Glo assay; format: toxicity, cell-based
[8] = Induction of apoptosis in human BZB-resistant NCI-H929 cells assessed as viable cells at 2.5 uM incubated for 48 hrs by Annexin V/7-AAD staining based FACS analysis (reference value: 86.7 %); format: functional; details: BZB-resistant […] cell, read-out: Activity
[9] = Induction of apoptosis in human BZB-resistant NCI-H929 cells assessed as viable cells at 5 uM incubated for 48 hrs by Annexin V/7-AAD staining based FACS analysis (reference value: 86.7 %); format: functional; details: BZB-resistant […] cell, read-out: Activity
[10] = Induction of apoptosis in human BZB-resistant NCI-H929 cells assessed as viable cells at 10 uM incubated for 48 hrs by Annexin V/7-AAD staining based FACS analysis (reference value: 86.7 %); format: functional; details: BZB-resistant […] cell, read-out: Activity
Carbonic anhydrase 2 [11] = target: T1, Carbonic anhydrase 2; assay: Inhibition of wild-type human CA-II using p-nitrophenylacetate as substrate at 500 uM preincubated for 10 mins followed by substrate addition by absorbance based assay relative to control

Chain of Carbonic anhydrase 1 (P00915 whole entry): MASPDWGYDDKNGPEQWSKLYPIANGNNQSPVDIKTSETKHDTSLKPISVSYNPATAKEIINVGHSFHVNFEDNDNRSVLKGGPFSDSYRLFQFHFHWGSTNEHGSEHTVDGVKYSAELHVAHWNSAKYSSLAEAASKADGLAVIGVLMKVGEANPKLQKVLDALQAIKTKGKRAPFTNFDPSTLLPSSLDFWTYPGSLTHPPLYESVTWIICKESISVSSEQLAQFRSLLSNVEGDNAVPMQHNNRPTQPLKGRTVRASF

Compound | Ki (Carbonic anhydrase 1) [µM] | Ki [1] [µM] | Ki (Carbonic anhydrase 9) [µM] | Ki (Carbonic anhydrase 7) [µM] | also measured
O=c1cccccc1OCc1ccc(Br)cc1 | > 100 | > 100 | 37.7 | – | –
O=c1cccccc1O [TROPOLONE] | > 100 | > 100 | > 100 | > 100 | inhibition (Homo sapiens [2]): 0%; inhibition (Homo sapiens [3]): 47%; Ki (Carbonic anhydrase 2 [4]): 1350 µM; Ki [5]: 245 µM; Ki (Carbonic anhydrase 2 [6]): > 100 µM; Ki (Carbonic anhydrase 12): > 100 µM
Cc1ccc(S(=O)(=O)Oc2cccccc2=O)cc1 | 94.2 | > 100 | > 100 | > 100 | –
CC(C)c1cccc(OCc2ccc(Br)cc2)c(=O)c1 | > 100 | 7.95 | 0.26 | 0.96 | –
CC(C)c1cccc(=O)c(OCc2ccccc2[N+](=O)[O-])c1 | > 100 | 8.96 | 1.41 | 5.41 | –
O=C(O)COc1cccccc1=O | – | 8.11 | 25.6 | – | –
CC(C)c1cccc(OCCCCCOc2cccc(C(C)C)cc2=O)c(=O)c1 | > 100 | 31.6 | 1.33 | 7.1 | –
O=c1cccccc1OCc1ccccc1C(F)(F)F | > 100 | 6.63 | 4.3 | 6.19 | –
O=c1cccccc1OCc1ccc([N+](=O)[O-])cc1 | 6.22 | > 100 | 13.3 | > 100 | –
O=c1cccccc1OCc1cccc2ccccc12 | > 100 | – | 2.28 | 2.82 | –
O=c1cccccc1OCCCCCBr | > 100 | – | 0.54 | 1.52 | –
CC(C)c1cccc(OCc2cccc3ccccc23)c(=O)c1 | > 100 | 89.4 | 0.53 | 3.95 | –
CC(C)c1cccc(OCc2ccccc2[N+](=O)[O-])c(=O)c1 | – | 21.7 | 0.94 | 6.18 | –
O=C(Oc1cccccc1=O)c1ccc([N+](=O)[O-])cc1 | 84.4 | – | > 100 | > 100 | –
O=c1cccccc1S | – | – | – | – | Ki (Carbonic anhydrase 2 [4]): 96 µM; Ki [5]: 61 µM
Cc1ccc(S(=O)(=O)Oc2cc(C(C)C)cccc2=O)cc1 | > 100 | – | 0.42 | 9.33 | Activity [7]: Non-toxic; viability at 2.5 µM [8]: 78.1%; viability at 5 µM [9]: 74.5%; viability at 10 µM [10]: 36.7%
CC(C)c1cccc(=O)c(OCc2ccccc2C(F)(F)F)c1 | – | 83.5 | – | > 100 | –
CC(C)c1cccc(=O)c(O)c1 [HINOKITIOL] | 4.98 | 7.5 | 23.9 | > 100 | inhibition (Carbonic anhydrase 2 [11]): 16%; inhibition (Homo sapiens [2]): 0%; inhibition (Homo sapiens [3]): 47%; Ki (Carbonic anhydrase 2 [6]): 90.6 µM; Ki (Carbonic anhydrase 12): > 100 µM
O=c1cccccc1OCCCCl | > 100 | – | 8.94 | 5.2 | –
N#Cc1ccc(COc2cccccc2=O)cc1 | 8.31 | > 100 | > 100 | > 100 | –
Cc1ccc(S(=O)(=O)Oc2cccc(C(C)C)cc2=O)cc1 | > 100 | 4.45 | 0.4 | 5.27 | –
O=C(Oc1cccccc1=O)C12CC3CC(CC(C3)C1)C2 | – | 85.6 | 43.5 | – | –
O=c1cccccc1OCc1cccc([N+](=O)[O-])c1 | > 100 | – | 34.5 | > 100 | –
CC(C)c1cccc(OCc2ccccc2C(F)(F)F)c(=O)c1 | – | > 100 | > 100 | > 100 | –
CC(C)c1cccc(OC(=O)c2ccc([N+](=O)[O-])cc2)c(=O)c1 | > 100 | > 100 | 0.37 | 9.6 | –
O=c1cccccc1OCc1ccccc1[N+](=O)[O-] | 8.01 | > 100 | > 100 | > 100 | –
C#CCOc1cccccc1=O | 0.05 | > 100 | – | – | –
